What all share (assay type): functional
What all share (settings): read-out: ED50 (the source's name)

For one assay, the system named is XF498. The assay is described as follows: Cytotoxicity against human XF498 cells.
The next assay relates to HCT-15. The assay is described as follows: Cytotoxicity against human HCT-15 cells.
For a further assay, the system named is A549. The assay is described as follows: Cytotoxicity against human A549 cells.
The next assay relates to SK-MEL-2. The experiment in a line: Cytotoxicity against human SK-MEL-2 cells.
In the next assay the test system is SK-OV-3. The assay is described as follows: Cytotoxicity against human SKOV3 cells.

SMILES strings stand for the structures. Values after ≈ are worked out from the molar mass of the structure shown.

Regarding `CC(C)=C[C@@H](C)[C@H]1CC[C@@H]2[C@]1(C)CC[C@H]1[C@]23C=C[C@]2(CCCC[C@]12C)OO3`, the EC50 was greater than 30 µg/mL in the assay with XF498; 21.4 µg/mL (≈ 57.7 µM) in the assay on HCT-15; 30 µg/mL (≈ 81 µM) in the assay on A549; 25.9 µg/mL (≈ 69.9 µM) in the assay with SK-MEL-2; 19.4 µg/mL (≈ 52.4 µM) with SK-OV-3.
For `CC(C)[C@@H](C)/C=C/[C@@H](C)[C@H]1CC[C@@H]2[C@]1(C)CC[C@H]1[C@]23C=C[C@]2(CCCC[C@]12C)OO3`, in that order: 24.7 µg/mL (≈ 59.9 µM), 21.1 µg/mL (≈ 51.1 µM), 17.5 µg/mL (≈ 42.4 µM), 19.4 µg/mL (≈ 47 µM) and 17.8 µg/mL (≈ 43.1 µM).
For the compound `CC(C)C/C=C/[C@@H](C)[C@H]1CC[C@H]2C3=C(CC[C@]12C)[C@@]1(C)CC[C@H](O)CC1=CC3=O`, the EC50 with XF498 is greater than 30 µg/mL; in the assay on HCT-15 it was 38.4 µg/mL (≈ 96.8 µM); in the assay with A549, greater than 30 µg/mL; in the assay on SK-MEL-2, greater than 30 µg/mL; in the assay on SK-OV-3 it was greater than 30 µg/mL.
For the compound `CC(C)[C@@H](C)/C=C/[C@@H](C)[C@H]1CCC2=C3[C@H](O)[C@@H]4O[C@@]45C[C@@H](O)CC[C@]5(C)[C@H]3CC[C@@]21C`, the EC50 in the assay on XF498 is greater than 30 µg/mL; in the assay with HCT-15, 17.9 µg/mL (≈ 41.8 µM); in the assay on A549 it was greater than 30 µg/mL; in the assay with SK-MEL-2, greater than 30 µg/mL; in the assay on SK-OV-3, 17.9 µg/mL (≈ 41.8 µM).
Take `CC(C)C/C=C/[C@@H](C)[C@H]1CC[C@@H]2[C@]1(C)CC=C1[C@]23C=C[C@]2(CCCC[C@]12C)OO3`: the EC50 worked out at 11.4 µg/mL (≈ 28.7 µM) in the assay on XF498; 4.7 µg/mL (≈ 11.9 µM) in the assay on HCT-15; 6.3 µg/mL (≈ 15.9 µM) with A549; 5.2 µg/mL (≈ 13.1 µM) with SK-MEL-2; 6.3 µg/mL (≈ 15.9 µM) in the assay with SK-OV-3.
On to `COc1cccc2c1C(=O)c1c(O)c3c(c(O)c1C2=O)C[C@@](O)(C(=O)CO)C[C@@H]3O[C@H]1C[C@H](N)[C@H](O)[C@H](C)O1` [DOXORUBICIN], for which the EC50 with XF498 amounted to 0.07 µg/mL (≈ 0.129 µM); in the assay with HCT-15 it was 0.13 µg/mL (≈ 0.239 µM); in the assay on A549, 0.08 µg/mL (≈ 0.147 µM); with SK-MEL-2, 0.08 µg/mL (≈ 0.147 µM); with SK-OV-3, 0.19 µg/mL (≈ 0.35 µM).
Consider `CCC(C)/C=C/[C@@H](C)[C@H]1CC[C@@H]2[C@]1(C)CC=C1[C@]23C=C[C@]2(CCCC[C@]12C)OO3` (stereo not given in full) [TOPSENTISTEROL A3], for which the EC50 with XF498 was determined as 6.2 µg/mL (≈ 15.6 µM); in the assay on HCT-15, 4.2 µg/mL (≈ 10.6 µM); in the assay on A549, 5.4 µg/mL (≈ 13.6 µM); with SK-MEL-2 it was 4.6 µg/mL (≈ 11.6 µM); with SK-OV-3, 7.1 µg/mL (≈ 17.9 µM).
Regarding `CC(C)[C@H](C)/C=C/[C@@H](C)[C@H]1CC[C@H]2C3=C(CC[C@]12C)[C@@]1(C)CC[C@H](O)C[C@@]12O[C@H]2[C@H]3O` [TOPSENTISTEROL B4], the EC50 stood at 19 µg/mL (≈ 44.3 µM) in the assay with XF498; 14.1 µg/mL (≈ 32.9 µM) with HCT-15; 9.7 µg/mL (≈ 22.6 µM) in the assay with A549; 11.3 µg/mL (≈ 26.4 µM) in the assay with SK-MEL-2; 7.8 µg/mL (≈ 18.2 µM) in the assay with SK-OV-3.
As to `CC(C)[C@H](C)/C=C/[C@@H](C)[C@H]1CCC2=C3[C@H](O)[C@@H]4O[C@@]45C[C@@H](O)CC[C@]5(C)[C@H]3CC[C@@]21C` [TOPSENTISTEROL B5], the EC50 in the assay with XF498 was greater than 30 µg/mL; in the assay with HCT-15 it was 18.4 µg/mL (≈ 42.9 µM); in the assay on A549 it was 13.9 µg/mL (≈ 32.4 µM); in the assay on SK-MEL-2 it was 5.5 µg/mL (≈ 12.8 µM); in the assay on SK-OV-3 it was 7.9 µg/mL (≈ 18.4 µM).
In the case of `C[C@H](CC[C@@H](C)[C@H]1CC[C@H]2C3=CC(=O)[C@@]4(O)C[C@@H](O)CC[C@]4(C)[C@@]3(O)CC[C@]12C)[C@@H]1C[C@H]1C` [TOPSENTISTEROL C1], the EC50 is 17.7 µg/mL (≈ 38.6 µM) with XF498; 6.1 µg/mL (≈ 13.3 µM) in the assay on HCT-15; 7.7 µg/mL (≈ 16.8 µM) in the assay on A549; 11.3 µg/mL (≈ 24.6 µM) with SK-MEL-2; 4.2 µg/mL (≈ 9.16 µM) with SK-OV-3.
As for `CO[C@@H]1C=C2[C@@H]3CC[C@H]([C@H](C)/C=C/[C@@H](C)C(C)C)[C@@]3(C)CC[C@]2(O)[C@@]2(C)CC[C@H](O)C[C@]12O` [TOPSENTISTEROL C3], the EC50 with XF498 was 4.7 µg/mL (≈ 10.2 µM); in the assay on HCT-15, 4.3 µg/mL (≈ 9.33 µM); in the assay on A549, 5.6 µg/mL (≈ 12.2 µM); in the assay on SK-MEL-2, 11.5 µg/mL (≈ 25 µM); in the assay on SK-OV-3 it was 7.8 µg/mL (≈ 16.9 µM).
Turning to `CC(C)[C@H](C)/C=C/[C@@H](C)[C@H]1CC[C@H]2C3=C(CC[C@]12C)[C@@]1(C)CC[C@H](O)CC1=CC3=O` [TOPSENTISTEROL D3], the EC50 in the assay on XF498 is greater than 30 µg/mL; with HCT-15 it was 33.6 µg/mL (≈ 81.8 µM); in the assay on A549 it was greater than 30 µg/mL; with SK-MEL-2, 24.5 µg/mL (≈ 59.7 µM); with SK-OV-3, greater than 30 µg/mL.
